Measured values published in US9994566B2, “Compound of 5-hydroxyl-1,7-naphthyridine substituted by aryl or heteroaryl, preparation method thereof and pharmaceutical use thereof” (SHENYANG SUNSHINE PHARMACEUTICAL CO. LTD., priority 2015, dated 2018).
pIC50: −log10 of the molar value. Where “and” joins values, the source holds several entries; their conditions need not be identical. Equal entries are not always repeated.

Key:
hepatoma cells Hep3B = assay: Promotion of erythropoietin (EPO) expression in hepatoma cells Hep3B in vitro (ELISA); format: cell-based, Human; conditions: Hep3B supernatant, 24 hours, test doses 100 μmol/L and 10 μmol/L (dose of the tabulated value not given)
Excerpt: Biological Example 1: Development and Screening of In Vitro Detection Methods: Promotion of Erythropoietin Expression in Hepatoma Cells Hep3B In Vitro by HIF-PHD2 Inhibitor Compounds
The complete medium for culture of Experimental hepatoma cells Hep3B (China Center for Type Culture Collection, CCTCC) was MEM (Cat# GNM 41500, GIBCO, provided by Hangzhou Genom Biopharmaceutical Technology Co., Ltd) supplemented with 10% serum FBS (Cat#10099-141, GIBCO) and 1% P/S (Cat#GNM15140, provided by Hangzhou Genom Biopharmaceutical Technology Co., Ltd). Cells were cultured in a 37° C., 5% CO2 incubator. Experimental reagents included dimethyl sulfoxide (for molecular biology, >=99.9%, Catalog # D8418) purchased from Sigma. The ELISA kit was purchased from Quantikine IVD ELISA, Human Erythropoietin (R&D, DEP00). The test control AKB-6548 was prepared by the inventors or obtained by commercial purchase. The test substance was stored at −20° C. in the dark.
The test substance and the positive control substance were fully dissolved in sterile water or dimethylsulfoxide under dark conditions and prepared into a stock solution at a concentration of 10^−1 mol/L or 10^−2 mol/L. Each of the stock solutions was stored at −20° C. MEM medium containing 0.5% FBS was used as a diluent to dilute the stock solution of the test substance, to prepare a diluted test substance at a concentration of 100 μmol/L and 10 μmol/L. To a 96-well culture plate was added 200 μl/well (1.5 or 2.0×10^4 cells/well) of hepatoma cells Hep3B complete medium suspension and incubated overnight at 37° C. in a 5% CO2 incubator. The solution in the 96-well culture plate was removed and the cells were washed once with the MEM medium containing 0.5% FBS. 200 μl/well of the test substance was added in the dark, at a dose of 100 μmol/L and 10 μmol/L, and each dose set 2 wells, a test well and a spare well. A cell control well was prepared by replacing the test solution with the diluent (without test substance and solvent). A solvent control well was prepared by replacing the test solution with the diluent containing the corresponding concentration of solvent (dimethylsulfoxide) (without test substance). They were cultured in a 5% CO2 incubator at 37° C. for 24 hours. The supernatant was absorbed as a sample and cryopreserved at −20° C. for use. 100 μl/well of stop solution was added. OD value was detected by microplate reader A450 nm-A600 nm. The expression level of EPO (mIU/mL) promoted by the test substance was obtained according to the standard curve.

[1] = target: HIF Prolyl hydroxylases 2 (PHD2) (Homo sapiens, UniProt Q9GZT9); assay: PHD2 inhibition, fluorescence polarization (FP) detection of HIF-1α / VBC complex interaction; format: biochemical; conditions: PHD2 0.5 μg/μl, FAM-HIF (556-575) 1 μM, 30 minutes room temperature
Chain of HIF Prolyl hydroxylases 2 (PHD2) (Q9GZT9 whole entry, species assumed): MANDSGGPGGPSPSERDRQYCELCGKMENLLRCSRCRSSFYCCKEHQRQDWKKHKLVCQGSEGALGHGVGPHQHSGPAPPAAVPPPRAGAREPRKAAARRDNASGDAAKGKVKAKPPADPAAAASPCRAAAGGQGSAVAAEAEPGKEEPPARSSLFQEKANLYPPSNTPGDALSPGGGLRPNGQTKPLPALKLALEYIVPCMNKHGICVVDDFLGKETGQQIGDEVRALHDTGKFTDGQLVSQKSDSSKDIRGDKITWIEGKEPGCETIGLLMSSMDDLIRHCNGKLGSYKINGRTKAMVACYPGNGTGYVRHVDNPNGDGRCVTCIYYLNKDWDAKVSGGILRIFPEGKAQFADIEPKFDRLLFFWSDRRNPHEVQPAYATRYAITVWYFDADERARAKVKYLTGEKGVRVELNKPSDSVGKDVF
Experimental: The interaction between hypoxia-inducible factor HIF-1α and VBC complex (von Hippel-Lindau protein-Elongin B-Elongin C, VBC) was detected by Fluorescence polarization (FP) method, to measure the enzyme inhibitory activity of the HIF Prolyl hydroxylases 2 (PHD2) inhibitor compounds.
Subsequently, the desired concentration of the test compound or the positive compound was added (the compound was replaced by the buffer in the negative control and the positive control). Finally, PHD2 was added at a final concentration of 0.5 μg/μl (PHD2 was replaced by the buffer in the negative control). They were mixed well and allowed to stand at room temperature for 30 minutes in the dark followed by 95° C. water bath for 1 minute, and then the reaction was terminated. After the temperature drops to room temperature, the sample was prepared well for use. EBC buffer (50 mM Tris.HCl, 120 mM NaCl, 0.5% NP-40) was added to the corresponding wells of a black 96-well test plate. A GST-VBC complex was added to the corresponding test wells at a final concentration of 300 nM (using the wells containing only EBC buffer as blank wells). Subsequently, the corresponding PHD2 prolyl hydroxylation reaction sample was added in the dark as a substrate with a final concentration of 100 nM. After mixing well, the lateral and longitudinal fluorescence intensity values were measured using a full-wavelength multifunctional microplate reader (TECAN infinite M1000) at an excitation wavelength of […] and an emission wavelength of 518 nm.
The fluorescence polarization (mP) was calculated: mP=1000×(lateral value−G factor×longitudinal value)/(lateral value+G factor×longitudinal value) wherein, lateral value=lateral fluorescence intensity value of test well−lateral fluorescence intensity value of blank well, longitudinal value=longitudinal fluorescence intensity value of test well−longitudinal fluorescence intensity value of blank well, […]
The IC50 was calculated using the non-linear regression data analysis method of Graphpad Prism 4.0 software ([…]).

male Balb/c mice = assay: Effect on increasing erythrocyte of normal mice: reticulocyte (RETIC) count; format: in vivo; conditions: 25 mg/kg, oral, once a day × 3, four hours after the last administration; for RETIC, individual mice (Mice No. 1-8): one value per mouse; for RETIC, Average: orbital blood
Experimental: Biological Example 3: Effect of the Compounds of the Present Invention on Increasing Erythrocyte of Normal Mice
80 male Balb/c mice were divided into 11 groups, with 8 animals for each drug group, 10 animals for blank control group. Drug group: AKB-6548, 100 mg/kg, oral administration, once a day×3; FG-4592, 25 mg/kg, oral administration, once a day×3; EPO, 100 IU/kg, Day 1 and Day 3, subcutaneous injection, as positive control groups. Each of the compounds of the present invention was orally administrated at 25 mg/kg, once a day×3. Four hours after the last administration, orbital blood of all animals were collected and treated with EDTA-K2 anticoagulant, and reticulocytes (RETIC) were counted with a blood cell automated analyzer.

| pIC50 [1] | SMILES | EPO level of the test substance (hepatoma cells Hep3B) [mIU/mL] | RETIC, individual mice (Mice No. 1-8) (male Balb/c mice) | RETIC, Average (male Balb/c mice) |
| --- | --- | --- | --- | --- |
| 5.11 | COc1cccc(-c2ccc3c(O)c(C(=O)NCC(=O)O)ncc3n2)c1 [Compound 15] | 6.316 | 4.9 (3×) and 4.6 and 4.1 and 3.7 and 3.8 and 3.1 | 4.25 |
| 5.28 | O=C(O)CNC(=O)c1ncc2nc(-c3ccc(C(F)(F)F)cc3)ccc2c1O [Compound 23, 2-{5-hydroxy-[2-(4-trifluoromethyl)-phenyl]-[1,7]-napthyridine-6-formamido} acetic acid] | 0.72 | 2.9 and 3.2 (3×) and 3 and 5.1 and 9.1 | 4.24 |
